The term MIC denotes the lowest concentration that inhibits growth of the organism. For orientation: IC50 means the midpoint of a concentration-inhibition curve. Higher therefore signals weaker potency in that assay.

Our source for the MIC and IC50 values is ChEMBL document CHEMBL5214940, “New potent ciprofloxacin-uracil conjugates as DNA gyrase and topoisomerase IV inhibitors against methicillin-resistant Staphylococcus aureus” (Bioorg Med Chem, 2022).

Converted amounts (≈) assume the structure as drawn.

The test system of experiment [1] is Escherichia coli. Nature of the experiment: Antibacterial activity against […] assessed as zone of inhibition by cup-plate agar diffusion method. The experiment is classed as functional. Background: A growth-free zone around the sample is the usual read-out of agar diffusion tests.
The test system of experiment [2] is Staphylococcus aureus. Put plainly: Antibacterial activity against methicillin-resistant Staphylococcus aureus AUMC 261 assessed as zone of inhibition by cup-plate agar diffusion method. In kind it is functional.
Experiment [3] has as its system Pseudomonas aeruginosa. Put plainly: Antibacterial activity against Pseudomonas aeruginosa ATCC27853 assessed as zone of inhibition by cup-plate agar diffusion method. In kind it is functional.
Experiment [4] deals with Klebsiella pneumoniae. Put plainly: Antibacterial activity against Klebsiella pneumoniae ATCC10031 assessed as zone of inhibition by cup-plate agar diffusion method. The experiment is classed as functional.
The test system of experiment [5] is Staphylococcus aureus. Put plainly: Antibacterial activity against Staphylococcus aureus ATCC6538 assessed as zone of inhibition by cup-plate agar diffusion method. In kind it is functional.
Experiment [6] is described as follows: Inhibition of Escherichia coli topoisomerase 4 mediated relaxation of supercoiled pHOT1 DNA at expense of ATP hydrolysis by ethidium bromide staining based agarose gel electrophoresis.
The target in experiment [7] is DNA gyrase (Escherichia coli, UniProt P0AES4+P0AES6). Put plainly: Inhibition of Escherichia coli DNA gyrase supercoiling activity using […] as substrate incubated for 15 to 30 mins by agarose gel electrophoresis analysis. In kind it is protein-complex assay.

Regarding `COc1ccc(/C=C2\C(=N)N=C(SCC(=O)N3CCN(c4cc5c(cc4F)c(=O)c(C(=O)O)cn5C4CC4)CC3)NC2=O)cc1`, the MIC in experiment [1] was 4.94 µM (≈ 3.13 µg/mL); in experiment [2], 2.43 µM (≈ 1.54 µg/mL); in experiment [3], more than 100 µM; in experiment [4], 2.47 µM (≈ 1.56 µg/mL); in experiment [5] it was 15.8 µM (≈ 10 µg/mL).
Regarding `Cn1c(NC(=O)CN2CCN(c3cc4c(cc3F)c(=O)c(C(=O)O)cn4C3CC3)CC2)cc(=O)n(C)c1=O`, the MIC in experiment [1] was 1.48 µM (≈ 0.779 µg/mL); in experiment [3] it was 2.97 µM (≈ 1.56 µg/mL); in experiment [4], 2.97 µM (≈ 1.56 µg/mL); in experiment [5], more than 100 µM.
On to `COc1ccc(/C=C2\C(=N)N=C(SCC(=O)N3CCN(c4cc5c(cc4F)c(=O)c(C(=O)O)cn5C4CC4)CC3)NC2=O)cc1OC`, for which the MIC in experiment [1] was 4.71 µM (≈ 3.12 µg/mL); in experiment [3] it was 2.97 µM (≈ 1.97 µg/mL); in experiment [4] it was 4.71 µM (≈ 3.12 µg/mL); in experiment [5], more than 100 µM.
In the case of `Cc1ccc(NC(=O)CSc2nc(NC(=O)CN3CCN(c4cc5c(cc4F)c(=O)c(C(=O)O)cn5C4CC4)CC3)cc(=O)[nH]2)cc1`, the MIC in experiment [1] was 18.9 µM (≈ 12.5 µg/mL); in experiment [3], more than 100 µM; in experiment [4], 37.8 µM (≈ 25 µg/mL); in experiment [5], more than 100 µM.
Consider `O=C(CN1CCN(c2cc3c(cc2F)c(=O)c(C(=O)O)cn3C2CC2)CC1)Nc1cc(=O)[nH]c(=O)[nH]1`, for which the MIC was 0.78 µM (≈ 0.389 µg/mL) in experiment [1]; 0.031 µM (≈ 0.0155 µg/mL) in experiment [2]; more than 100 µM in experiment [3]; 1.57 µM (≈ 0.783 µg/mL) in experiment [4]; 1.25 µM (≈ 0.623 µg/mL) in experiment [5]. Besides, the IC50 in experiment [6] came to 4.36 µM; in experiment [7] it was 1.72 µM.
Consider `N=C1N=C(SCC(=O)N2CCN(c3cc4c(cc3F)c(=O)c(C(=O)O)cn4C3CC3)CC2)NC(=O)/C1=C/c1ccc(F)cc1`, for which the MIC in experiment [1] is 5.03 µM (≈ 3.12 µg/mL); in experiment [3], more than 100 µM; in experiment [4] it was 20.2 µM (≈ 12.5 µg/mL); in experiment [5] it was more than 100 µM.
With `CSc1nc(NC(=O)CN2CCN(c3cc4c(cc3F)c(=O)c(C(=O)O)cn4C3CC3)CC2)cc(=O)[nH]1`, the MIC in experiment [1] was 2.95 µM (≈ 1.56 µg/mL); in experiment [2], 0.046 µM (≈ 0.0243 µg/mL); in experiment [3], more than 100 µM; in experiment [4], 5.91 µM (≈ 3.12 µg/mL); in experiment [5], 2.37 µM (≈ 1.25 µg/mL). Besides, the IC50 in experiment [6] was found to be 7.77 µM; in experiment [7], 5.72 µM.
On to `N=C1N=C(SCC(=O)N2CCN(c3cc4c(cc3F)c(=O)c(C(=O)O)cn4C3CC3)CC2)NC(=O)/C1=C/c1ccc(Br)cc1`, for which the MIC is 4.59 µM (≈ 3.13 µg/mL) in experiment [1], more than 100 µM in experiment [3], 9.19 µM (≈ 6.26 µg/mL) in experiment [4] and more than 100 µM in experiment [5].
With `COc1cc(/C=C2\C(=N)N=C(SCC(=O)N3CCN(c4cc5c(cc4F)c(=O)c(C(=O)O)cn5C4CC4)CC3)NC2=O)ccc1O`, the MIC is 2.41 µM (≈ 1.56 µg/mL) in experiment [1]; 1.57 µM (≈ 1.02 µg/mL) in experiment [2]; more than 100 µM in experiment [3]; 4.81 µM (≈ 3.12 µg/mL) in experiment [4]; 7.58 µM (≈ 4.92 µg/mL) in experiment [5].
Consider `CCCn1c(=O)cc(NC(=O)CN2CCN(c3cc4c(cc3F)c(=O)c(C(=O)O)cn4C3CC3)CC2)[nH]c1=O`, for which the minimum inhibitory concentration (MIC) was 11.6 µM (≈ 6.25 µg/mL) in experiment [1], more than 100 µM in experiment [3], 11.6 µM (≈ 6.25 µg/mL) in experiment [4] and 18.5 µM (≈ 10 µg/mL) in experiment [5].
As for `COc1cc(/C=C2\C(=N)N=C(SCC(=O)N3CCN(c4cc5c(cc4F)c(=O)c(C(=O)O)cn5C4CC4)CC3)NC2=O)cc(OC)c1OC`, the MIC was 4.51 µM (≈ 3.12 µg/mL) in experiment [1]; 0.096 µM (≈ 0.0665 µg/mL) in experiment [2]; more than 100 µM in experiment [3]; 9.03 µM (≈ 6.26 µg/mL) in experiment [4]; 4.25 µM (≈ 2.94 µg/mL) in experiment [5].
For `O=C(O)c1cn(C2CC2)c2cc(N3CCNCC3)c(F)cc2c1=O` [CIPROFLOXACIN], the MIC in experiment [1] was 0.6 µM (≈ 0.199 µg/mL); in experiment [2], 0.57 µM (≈ 0.189 µg/mL); in experiment [3] it was 0.6 µM (≈ 0.199 µg/mL); in experiment [4] it was 1.21 µM (≈ 0.401 µg/mL); in experiment [5], 7.58 µM (≈ 2.51 µg/mL). The IC50 in experiment [6] is 8.16 µM.
For the compound `N=C1N=C(SCC(=O)N2CCN(c3cc4c(cc3F)c(=O)c(C(=O)O)cn4C3CC3)CC2)NC(=O)/C1=C/c1ccc(Cl)cc1`, the MIC in experiment [1] was 4.91 µM (≈ 3.13 µg/mL); in experiment [3], more than 100 µM; in experiment [4], 4.91 µM (≈ 3.13 µg/mL); in experiment [5] it was more than 100 µM.
With `C=CCSc1nc(NC(=O)CN2CCN(c3cc4c(cc3F)c(=O)c(C(=O)O)cn4C3CC3)CC2)cc(=O)[nH]1`, the MIC in experiment [1] is 11.3 µM (≈ 6.26 µg/mL); in experiment [3] it was more than 100 µM; in experiment [4], 22.6 µM (≈ 12.5 µg/mL); in experiment [5], 18.1 µM (≈ 10 µg/mL).
For `CCCCSc1nc(NC(=O)CN2CCN(c3cc4c(cc3F)c(=O)c(C(=O)O)cn4C3CC3)CC2)cc(=O)[nH]1`, in that order: 2.73 µM (≈ 1.56 µg/mL), more than 100 µM, 5.47 µM (≈ 3.12 µg/mL) and 17.5 µM (≈ 10 µg/mL).
On to `CCCSc1nc(NC(=O)CN2CCN(c3cc4c(cc3F)c(=O)c(C(=O)O)cn4C3CC3)CC2)cc(=O)[nH]1`, for which the MIC is 5.61 µM (≈ 3.12 µg/mL) in experiment [1], more than 100 µM in experiment [3], 11.2 µM (≈ 6.26 µg/mL) in experiment [4] and 18 µM (≈ 10 µg/mL) in experiment [5].
Regarding `O=C(CSc1nc(NC(=O)CN2CCN(c3cc4c(cc3F)c(=O)c(C(=O)O)cn4C3CC3)CC2)cc(=O)[nH]1)Nc1ccccc1`, the MIC in experiment [1] was 9.66 µM (≈ 6.26 µg/mL); in experiment [3], more than 100 µM; in experiment [4] it was 19.3 µM (≈ 12.5 µg/mL); in experiment [5], more than 100 µM.
On to `N=C1N=C(SCC(=O)N2CCN(c3cc4c(cc3F)c(=O)c(C(=O)O)cn4C3CC3)CC2)NC(=O)/C1=C/c1ccccc1`, for which the MIC was 1.3 µM (≈ 0.783 µg/mL) in experiment [1], 2.59 µM (≈ 1.56 µg/mL) in experiment [3], 5.18 µM (≈ 3.12 µg/mL) in experiment [4] and more than 100 µM in experiment [5].
As to `COc1ccc(NC(=O)CSc2nc(NC(=O)CN3CCN(c4cc5c(cc4F)c(=O)c(C(=O)O)cn5C4CC4)CC3)cc(=O)[nH]2)cc1`, the MIC in experiment [1] was 4.61 µM (≈ 3.12 µg/mL); in experiment [3], more than 100 µM; in experiment [4], 18.5 µM (≈ 12.5 µg/mL); in experiment [5], more than 100 µM.
Take `O=C(CSc1nc(NC(=O)CN2CCN(c3cc4c(cc3F)c(=O)c(C(=O)O)cn4C3CC3)CC2)cc(=O)[nH]1)Nc1ccc(Cl)cc1`: the MIC in experiment [1] was 18.4 µM (≈ 12.5 µg/mL); in experiment [2], 7.22 µM (≈ 4.93 µg/mL); in experiment [3], more than 100 µM; in experiment [4] it was 4.58 µM (≈ 3.12 µg/mL); in experiment [5], 14.7 µM (≈ 10 µg/mL).
Turning to `Cn1c(=O)cc(NC(=O)CN2CCN(c3cc4c(cc3F)c(=O)c(C(=O)O)cn4C3CC3)CC2)[nH]c1=O`, the MIC is 3.05 µM (≈ 1.56 µg/mL) in experiment [1], more than 100 µM in experiment [3], 6.1 µM (≈ 3.13 µg/mL) in experiment [4] and more than 100 µM in experiment [5].
